# Test system: primary breast tumor
# Experiment: neoadjuvant prospective TOP trial: pathological complete response to anthracyclines (epirubicin) monotherapy
# Type: in vivo, human
# Method: One hundred and forty-nine patients were included in the prospective TOP trial. Out of these patients, 89 received 4 cycles of anthracyclines every 3 weeks, 59 patients received 6 cycles of anthracyclines administered every 2 weeks (dose-dense scheme) and one was not treated according to the protocol due to ineligibility.
# The neoadjuvant prospective “TOP” (Trial of Principle) trial was conducted at different European hospitals and coordinated by the Institut Jules Bordet. This study is registered on the clinical trials site of the US National Cancer Institute website http://clinicaltrials.gov/ct2/show/NCT00162812?term=NCT00162812&rank=1. One hundred and forty-nine patients have been included in this trial. Anthracyclines (Epirubicin) monotherapy (100 mg/m2) was given as neo-adjuvant chemotherapy: every 3 weeks×4 cycles for early BC or every 2 weeks×6 cycles with Neulasta® 6 mg on day 2 for patients with inflammatory or locally advanced breast cancer. At completion of chemotherapy, every patient underwent surgery with axillary node sampling. After surgery, adjuvant docetaxel (100 mg/m2×4 cycles) and loco-regional irradiation were administered using standard criteria. This study was primarily designed for the identification of biomarkers of response to anthracyclines (epirubicin).
# All patients underwent pretreatment core biopsies of the primary breast tumor before starting neo-adjuvant chemotherapy using a 14G needle. Two biopsies were embedded in OCT (Sakura), frozen in liquid nitrogen within 5 minutes and transferred to a −80° C. freezer. Two biopsies were fixed in formalin and embedded in paraffin. Both fixed and frozen samples were retrieved and stored at the Institut Jules Bordet in Brussels, where the TOP2A evaluations were carried out. Pathologic response was determined by microscopic examination of the excised tumor and nodes after completion of chemotherapy. Pathological complete response (pCR) was defined by the absence of residual invasive breast carcinoma (macro and microscopic) in the breast and in the axillary nodes. Persistence of in-situ carcinoma without invasive component was considered pCR.
structure (smiles),measurement,setting,value
"COc1cccc2c1C(=O)c1c(O)c3c(c(O)c1C2=O)C[C@@](O)(C(=O)CO)C[C@@H]3O[C@H]1C[C@H](N)[C@@H](O)[C@H](C)O1 [anthracyclines, Epirubicin]",pathological complete response (pCR) rate,3-weekly scheme (every 3 weeks x 4 cycles),14%
same,proportion of patients who presented a pCR,HER2-negative patients (FISH),10%
same,proportion of patients who presented a pCR,HER2-positive patients (FISH),23%
same,pathological complete response (pCR) rate,"all patients of the TOP trial, neo-adjuvant epirubicin monotherapy 100 mg/m2",15%
same,pathological complete response (pCR) rate,dose-dense scheme (every 2 weeks x 6 cycles),16%
same,patients who responded to the anthracyclines therapy (pCR),patients whose tumors had no TOP2A amplification (FISH),9%
same,patients who responded to the anthracyclines therapy (pCR),patients with TOP2A amplified tumors (FISH),55%
